Data taken from ChEMBL document CHEMBL4190297, “Cafestol, a Bioactive Substance in Coffee, Has Antidiabetic Properties in KKAy Mice” (J Nat Prod, 2017).
Active and inactive are the calls of the source. No cut-off for these calls is given here.

Legend:
Mus musculus [1] = species: Mus musculus; assay: Effect on Lipc mRNA expression levels in adipose tissue of KK-Ay diabetic mouse model at 0.4 to 1.1 mg added daily to normal chow pellets for 10 weeks by qRT-PCR analysis; assay type: functional, organism-based
Mus musculus [2] = species: Mus musculus; assay: Effect on AMPKalpha2 mRNA expression levels in adipose tissue of KK-Ay diabetic mouse model at 0.4 to 1.1 mg added daily to normal chow pellets for 10 weeks by qRT-PCR analysis; assay type: functional, organism-based
Mus musculus [3] = species: Mus musculus; assay: Toxicity in KK-Ay diabetic mouse model assessed as effect on body weight at 1.1 mg added daily to normal chow pellets for 4 weeks; assay type: organism-based; settings: in vivo, po, 672 h
Mus musculus [4] = species: Mus musculus; assay: Effect on Sirt1 mRNA expression levels in adipose tissue of KK-Ay diabetic mouse model at 0.4 to 1.1 mg added daily to normal chow pellets for 10 weeks by qRT-PCR analysis; assay type: functional, organism-based
Mus musculus [5] = species: Mus musculus; assay: Effect on water-fat fraction in liver of KK-Ay diabetic mouse model at 0.4 to 1.1 mg added daily to normal chow pellets for 10 weeks by MR spectroscopic analysis; assay type: functional, organism-based

## C[C@@]12CCc3occc3[C@H]1CC[C@@]13C[C@H](CC[C@H]12)[C@@](O)(CO)C3
Mus musculus [1]
  Activity: inactive
Mus musculus [2]
  Activity: inactive
Mus musculus [3]
  Activity: Non-Toxic
Mus musculus [4]
  Activity: inactive
Mus musculus [5]
  Activity: inactive
